Laboratory results reported in patent US6713468B2, “Methods of using thiazolobenzoheterocycles” (Aventis Pharma S.A., priority 1997, dated 2004).

| melting point | SMILES |
| --- | --- |
| 192 °C | N=c1sc2cc(OC(F)(F)F)cc3c2n1CCC3=O [Example 8, 2-imino-8-trifluoromethoxy-2H,4H-thiazolo-[5,4,3-ij]quinolin-6-one] |
| 255 °C | N=c1sc2cc(OC(F)(F)F)cc3c2n1CC(=O)N3 [Example 37, 2-imino-8-trifluoromethoxy-2H,4H-thiazolo[3,4,5-de]quinoxalin-5(6H)-one] |
